Reference: patent US7420037B2, “Heat shock protein-based vaccines and immunotherapies” (Antigenics Inc., priority 2003, dated 2008)
Where “and” joins values, the source holds several entries; their conditions need not be identical. Identical values can stand only once. No end group written: not given here.

What follows are substances tested on recombinant human or murine heat shock protein 70 (hsp70) (assay: not given). Conditions: not given.
Format: binding
In the case of “SIINFEKLgsgNLLRLTGW (SIINFEKLGSGNLLRLTGW; not fully specified; printed as SIINFEKLgsgNLLRLTGW) [OVA + NLLRLTGW]”, the “increase in affinity for HSP70 (lower dissociation constant) over SIINFEKLGSGHWDFAWPW” value is reported as 15 fold.

Same assay, conditions: pH 8; read-out: Kd, peptide (epitope), heat shock protein-binding domain: None
In the case of ALFDIESKV [PSMA P2, reference compound], the Kd is reported as 145 µM. Work on “IMDQVPFSV [Gp100 (“IMD”), reference compound]” yielded a Kd of 2560 µM. SIINFEKL [OVA, reference compound] gave a Kd of 279 µM. In the case of “TLGIVCPI [HPV16 E7 (86-93), reference compound]”, the Kd is reported as 187 µM. “YMDGTMSQV [Tyrosinase (“YMD”), reference compound]” gave a Kd of 204 µM. With “YMLDLQPETT [HPV16 E7 (11-20), reference compound]” the Kd was 91 µM.

Same assay, conditions: read-out: Epitope alone: Affinity for hsp70
Work on AFHHVAREL [reference compound] yielded a Kd of 84 µM. In the case of AIIRILQQL [reference compound], the Kd is reported as 93 µM. For ALKHRAYEL [reference compound], the Kd was 97 µM. For GLYDGMEHL [reference compound], the Kd was 48 µM. Substance ILKEPVHGV [reference compound] has a Kd of 83 µM. “IMDQVPFSV [Gp100 (“IMD”), reference compound]” was tested, and the Kd was 2570 µM. KASEKIFYV [reference compound] showed a Kd of 57 µM. For SLFNTVATL [reference compound], the Kd was 35 µM. With SVYDFFVWL [reference compound] the Kd was 81 µM. In the case of VIYQYMDDL [reference compound], the Kd is reported as 91 µM. For VLDVGDAYFSV [reference compound], the Kd was 110 µM. YLEPGPVTV [reference compound] gave a Kd of 71 µM. For “YMDGTMSQV [Tyrosinase (“YMD”), reference compound]”, the Kd was 209 µM.

Same assay, conditions: read-out: Hybrid antigen comprising epitope: Affinity for hsp70
For AFHHVARELGSGNLLRLTGW, the Kd was 2.1 µM. Work on AIIRILQQLGSGNLLRLTGW yielded a Kd of 0.6 µM. For ALKHRAYELGSGNLLRLTGW, the Kd was 1.1 µM. GLYDGMEHLGSGNLLRLTGW showed a Kd of 1.1 µM. Substance ILKEPVHGVGSGNLLRLTGW has a Kd of 1.2 µM. In the case of “IMDQVPFSVgsgNLLRLTGW (IMDQVPFSVGSGNLLRLTGW; not fully specified; printed as IMDQVPFSVgsgNLLRLTGW)”, the Kd is reported as 0.9 µM. KASEKIFYVGSGNLLRLTGW showed a Kd of 1.4 µM. In the case of NLLRLTGWGSGRGYVYQGL, the Kd is reported as 1.4 µM. Substance NLLRLTGWGSGSHNFEKL has a Kd of 1.6 µM. With SLFNTVATLGSGNLLRLTGW the Kd was 1.9 µM. SLLMWITQVGSGNLLRLTGW was tested, and the Kd was 2.2 µM. SLYNTVATLGSGNLLRLTGW gave a Kd of 1.8 µM. With SVYDFFVWLGSGNLLRLTGW the Kd was 2.9 µM. For VIYQYMDDLGSGNLLRLTGW, the Kd was 1.7 µM. Substance VLDVGDAYFSVGSGNLLRLTGW has a Kd of 2 µM. For YLEPGPVTVGSGNLLRLTGW, the Kd was 2 µM. YMDGTMSQVgsgNLLRLTGW gave a Kd of 1.8 µM.

Same assay, conditions: read-out: Kd, heat shock protein-binding domain: FYQLALTW; pH 8; read-out: Kd, heat shock protein-binding domain: […]
FYQLALTW gave a Kd of 5.9 µM. “SIINFEKLgsgFYQLALTW (SIINFEKLGSGFYQLALTW; not fully specified; printed as SIINFEKLgsgFYQLALTW) [OVA + FYQLALTW]” was tested, and the Kd was 1.43 µM.

Same assay, conditions: read-out: Kd, heat shock protein-binding domain: HWDFAWPW; pH 8; read-out: Kd, heat shock protein-binding domain: […]
For “ALFDIESKVgsgHWDFAWPW (ALFDIESKVGSGHWDFAWPW; not fully specified; printed as ALFDIESKVgsgHWDFAWPW) [PSMA P2 + HWDFAWPW]”, the Kd was 22 µM. HWDFAWPW showed a Kd of 120 µM. In the case of “HWDFAWPWgsgSIINFEKL (HWDFAWPWGSGSIINFEKL; not fully specified; printed as HWDFAWPWgsgSIINFEKL)”, the Kd is reported as 4.3 µM. “HWDFAWPWgsgYMDGTMSQV (HWDFAWPWGSGYMDGTMSQV; not fully specified; printed as HWDFAWPWgsgYMDGTMSQV)” gave a Kd of 29 µM. In the case of “IMDQVPFSVgsgHWDFAWPW (IMDQVPFSVGSGHWDFAWPW; not fully specified; printed as IMDQVPFSVgsgHWDFAWPW)”, the Kd is reported as 155 µM. “SIINFEKLgsgHWDFAWPW (SIINFEKLGSGHWDFAWPW; not fully specified; printed as SIINFEKLgsgHWDFAWPW) [OVA + HWDFAWPW]” showed a Kd of 40 µM. Work on “TLGIVCPIgsgHWDFAWPW (TLGIVCPIGSGHWDFAWPW) [HPV16 E7 (86-93) + HWDFAWPW]” yielded a Kd of 9.1 µM. In the case of “YMDGTMSQVgsgHWDFAWPW (YMDGTMSQVGSGHWDFAWPW)”, the Kd is reported as 24 µM. “YMLDLQPETTgsgHWDFAWPW (YMLDLQPETTGSGHWDFAWPW) [HPV16 E7 (11-20) + HWDFAWPW]” gave a Kd of 27 µM.

Same assay, conditions: read-out: Kd, heat shock protein-binding domain: NLLRLTGW; pH 8; read-out: Kd, heat shock protein-binding domain: […]
“IMDQVPFSVgsgNLLRLTGW (IMDQVPFSVGSGNLLRLTGW; not fully specified; printed as IMDQVPFSVgsgNLLRLTGW)” gave a Kd of 3.1 µM. Substance NLLRLTGW has a Kd of 1.85 µM. PSMA P2 + NLLRLTGW was tested, and the Kd was 1.3 µM. “SIINFEKLgsgNLLRLTGW (SIINFEKLGSGNLLRLTGW; not fully specified; printed as SIINFEKLgsgNLLRLTGW) [OVA + NLLRLTGW]” was tested, and the Kd was 1.2 µM. “TLGIVCPIgsgNLLRLTGW [HPV16 E7 (86-93) + NLLRLTGW]” was tested, and the Kd was 5.2 µM. For YMDGTMSQVgsgNLLRLTGW, the Kd was 2.65 µM.

Same assay, conditions: read-out: Kd, heat shock protein-binding domain: RKLFFNLRW; pH 8; read-out: Kd, heat shock protein-binding domain: […]
Work on RKLFFNLRW yielded a Kd of 15 µM. For “SIINFEKLgsgRKLFFNLRW (SIINFEKLGSGRKLFFNLRW; not fully specified; printed as SIINFEKLgsgRKLFFNLRW) [OVA + RKLFFNLRW]”, the Kd was 7 µM.

The substances below were run on SIINFEKL-pulsed target cells (assay: 51Cr-release CTL assay after immunization of mice). Conditions: Example 14; SIINFEKL-pulsed target cells.
Format: in vivo
Experimental: Mice were immunized s.c. at the base of the tail with the complexes listed above—[…] (SEQ ID NO:359) alone was added at a five-fold molar excess of the […] (SEQ ID NO:358) dose. 7 d later, spleens were harvested and stimulated in vitro with […] (SEQ ID NO:357) peptide. Values within bars represent the amount of epitope delivered. 100:1 E:T ratio shown.
In the same experiment, a ^51Cr-release assay as described above was done using […]-pulsed target cells. At an effector to target cell ratio of 200:1, the percent killing results obtained are shown in the far right column of the following table.
In the case of “Hsp70: recombinant human heat shock protein 70”, the “CTL assay: % killing at 200:1 E/T” value is reported as 0%.

Same assay, conditions: Example 16; SIINFEKL-pulsed target cells
For “Hsp70: recombinant human heat shock protein 70”, the “CTL assay: % killing at 200:1 E/T” value was 8.45%.

Same assay, conditions: binding domain peptide alone added at five-fold molar excess
In the case of NLLRLTGW, the “effect on induction of an immune response by HSP70: SIINFEKLGSGHWDFAWPW mixture” value is reported as “prevent induction of an immune response”.

The substances below were run on γ-interferon-secreting CD8+ cells (assay: γ-interferon-secreting CD8+ cells after immunization of mice and in vitro restimulation with […]). Conditions: mice immunized day 0, splenocytes day 7, restimulated 5 days; FIG. 1.
Format: in vivo
Experimental: Non-covalent complexes of recombinant human heat shock protein 70 and hybrid antigens of the invention were evaluated for biological activity in vivo. To evaluate the induction of an antigen-specific immune response, mice were immunized on day 0 with one of the following: (1) 100 μg human hsp70; (2) a noncovalent complex of 100 μg hsp70 and 15 μg […] (SEQ ID NO:357) (OVA peptide); (3) a noncovalent complex of 100 μg hsp70 and 15 μg […] (SEQ ID NO:368) (N-terminal OVA peptide, C-terminal heat shock protein binding domain […] (SEQ ID NO:358), GSG linker in between); and (4) a noncovalent complex of […] and 15 μg […] (SEQ ID NO:367) (N-terminal OVA peptide, C-terminal heat shock protein binding domain […] (SEQ ID NO:359), GSG linker in between).
On day 7, splenocytes were obtained from the immunized animals and were restimulated with peptide ([…]) (SEQ ID NO:357) in vitro for 5 days, after which the percent of γ-interferon-secreting CD8+ cells was determined.
With “Hsp70: recombinant human heat shock protein 70” the “immune response: percent of γ-interferon-secreting CD8+ cells” value was “low level of response”.

The substances below were run on CD8+ T cells (assay: not given). Conditions: mouse, in vivo.
Set-up: species or system mice
“Hsp70: recombinant human heat shock protein 70” was tested, and the “Number of Spots, Con A Positive control” value was 965, the “Number of Spots, Con A positive control” value was 834 and the “Number of Spots, Medium control” value was 1.50 and 1.00. For the same substance, the “Number of Spots, SIINFEKL” value was 0.33, the “Number of spots, Con A positive control” value was 552 spots per 300,000 CD8 T cells and the “Number of spots, Medium control” value was 0.00 spots per 300,000 CD8 T cells. For the same substance, the “Number of spots, SIINFEKL” value was 0.67 spots per 300,000 CD8 T cells, the “Number of spots, Unpulsed control” value was 0.50 spots per 300,000 CD8 T cells and the “Number of spots, VSV control” value was 1.00 spots per 300,000 CD8 T cells.

Same assay, conditions: mouse, in vivo, sc
“Hsp70: recombinant human heat shock protein 70” was tested, and the “Number of Spots, SIINFEKL” value was 0.00.
